Measured values published in patent US9023851B2 (Merck Patent GmbH, priority 2010, dated 2015).

Columns and labels:
Ramos cells = experiment: BCR crosslinking-induced BLNK phosphorylation (BLNK cell assay); type: cell-based; conditions: Homo sapiens
Procedure: 1. BCR Crosslinking-Induced BLNK Phosphorylation
Ramos cells incubated overnight in IMDM medium containing 5% FCS were resuspended in IMDM medium without serum (3.3×10^6 cells/ml). 90 μl of cell suspension (300′000 cells) were incubated with 10 μl of SYK inhibitors (in 3% DMSO) for 20 minutes at 37° C., in 96 well plates. After preincubation with inhibitors, cells were activated with 10 μg/ml of goat antihuman anti-IgM for 10 minutes at 37° C. After stimulation, cells were fixed by addition of 80 μl of 4% paraformaldehyde followed by a 10 minutes incubation at RT and […] in 0.1% Triton X-100 in PBS. BLNK phosphorylation was detected by flow cytometry after staining of the cells with anti-BLNK-pY84-PE antibodies from BD pharmingen, for 45 minutes at RT. […]

Syk = molecular target: T1, Syk (Homo sapiens, UniProt P43405); experiment: Syk enzyme assay (flash plate / Caliper mobility shift); type: biochemical
T1 construct: purchased BPS Bioscience, CA, USA
In short: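 Flashplate format used 2.5 nM SYK, 400 nM biotinylated peptide and 10 µM ATP with 33P tracer, pH 7.5, 1 h at 30 °C, read by radioactivity. Caliper format ran 90 min at 25 °C in HEPES pH 7.5, reading percent peptide conversion by mobility shift. IC50s came from dose-response curves.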

ZAP-70 = molecular target: T2, ZAP-70 (Homo sapiens, UniProt P43403); experiment: Zap70 enzymatic assay (Caliper LifeSciences technology); type: biochemical
T2 construct: purchased BPS Bioscience, CA, USA
T2 sequence (P43403 1-619): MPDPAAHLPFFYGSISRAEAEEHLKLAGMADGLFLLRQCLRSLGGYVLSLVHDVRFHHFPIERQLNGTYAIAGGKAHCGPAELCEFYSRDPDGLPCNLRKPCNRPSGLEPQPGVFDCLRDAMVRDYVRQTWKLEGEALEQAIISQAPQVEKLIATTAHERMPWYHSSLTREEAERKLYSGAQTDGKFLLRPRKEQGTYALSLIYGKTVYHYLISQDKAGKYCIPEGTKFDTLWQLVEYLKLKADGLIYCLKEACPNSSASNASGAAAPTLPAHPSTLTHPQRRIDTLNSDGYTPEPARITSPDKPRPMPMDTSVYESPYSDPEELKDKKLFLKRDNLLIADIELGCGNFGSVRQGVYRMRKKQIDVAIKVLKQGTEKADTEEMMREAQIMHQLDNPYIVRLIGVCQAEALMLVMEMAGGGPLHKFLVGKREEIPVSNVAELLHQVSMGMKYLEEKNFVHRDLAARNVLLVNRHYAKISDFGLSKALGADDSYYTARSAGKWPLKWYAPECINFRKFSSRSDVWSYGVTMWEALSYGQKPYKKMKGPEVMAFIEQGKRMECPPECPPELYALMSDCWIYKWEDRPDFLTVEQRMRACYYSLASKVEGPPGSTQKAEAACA
In short: (§1)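 Off-chip mobility-shift assay quantifying conversion of a fluorescent peptide substrate to phosphorylated product. Reactions in 100 mM HEPES pH 7.5, 1 mM DTT, 1 mM MgCl2, 0.015% Brij-35, 90 min at 25 C, stopped with EDTA. IC50 from sigmoidal fit of percent conversion versus inhibitor concentration.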

KDR = molecular target: T3, KDR (Homo sapiens, UniProt P35968); experiment: KDR enzymatic assay (Caliper LifeSciences technology); type: biochemical
T3 construct: purchased BPS Bioscience, CA, USA
In short: as §1

Src = molecular target: T4, Src (Homo sapiens, UniProt P12931); experiment: cSrc enzymatic assay (Caliper LifeSciences technology); type: biochemical
T4 construct: purchased Carna Bioscience, Kobe, Japan
Procedure: Enzymatic Assays Using the Caliper LifeSciences Technology
The assays described here are performed on the Caliper Life Sciences LC3000 system This technology provides data on enzyme activity via measurement of the relative amounts of phosphorylated or unphosphorylated fluorescently labelled substrate peptide at the end of an enzymatic reaction. These different states of peptide are resolved by applying a potential difference across the sample. The presence of the charged phosphate group on the product (as opposed to the substrate) causes a different peptide mobility between the two peptides. This is visualized by excitation of the fluorescent label on the substrate and product peptides and represented as peaks within the analysis software.
In order to measure inhibitor activity of kinase inhibitors on this technology, a TTP Mosquito liquid handling instrument is used to place 0.25 ul of the appropriate concentration of inhibitor in 100% DMSO (for a dose response curve calculation) into each well of a 384-well plate. To this reaction components are added to a final volume of 25 ul. The table below indicates the sequences and concentrations for the assays described in this report. Standard components are 1 mM DTT (Sigma, D0632), 1 mM MgCl2 (Sigma, M1028), 100 mM HEPES pH 7.5 (Calbiochem, 391338), 0.015% Brij-35 (Sigma, B4184).
The reaction is incubated for 90 min at 25 C, and then stopped by the addition of 70 ul of Stop buffer (100 mM HEPES pH 7.5, 0.015% Brij-35, 10 mM EDTA (Sigma, E7889)).
The plate is read on a Caliper LC 3000 in an Off-Chip mobility shift assay format, on a 12-sipper chip. Unphosphorylated substrate and phosphorylated product peptide resolve as separate peaks allowing direct measurement of percentage of conversion of substrate to product. The percent conversion can be plotted against concentration of inhibitor to produce a sigmoidal dose response curve, from which an IC50 can be calculated using GeneData Condoseo or a similar product. Cellular activity assays

T4 sequence (P12931 whole entry): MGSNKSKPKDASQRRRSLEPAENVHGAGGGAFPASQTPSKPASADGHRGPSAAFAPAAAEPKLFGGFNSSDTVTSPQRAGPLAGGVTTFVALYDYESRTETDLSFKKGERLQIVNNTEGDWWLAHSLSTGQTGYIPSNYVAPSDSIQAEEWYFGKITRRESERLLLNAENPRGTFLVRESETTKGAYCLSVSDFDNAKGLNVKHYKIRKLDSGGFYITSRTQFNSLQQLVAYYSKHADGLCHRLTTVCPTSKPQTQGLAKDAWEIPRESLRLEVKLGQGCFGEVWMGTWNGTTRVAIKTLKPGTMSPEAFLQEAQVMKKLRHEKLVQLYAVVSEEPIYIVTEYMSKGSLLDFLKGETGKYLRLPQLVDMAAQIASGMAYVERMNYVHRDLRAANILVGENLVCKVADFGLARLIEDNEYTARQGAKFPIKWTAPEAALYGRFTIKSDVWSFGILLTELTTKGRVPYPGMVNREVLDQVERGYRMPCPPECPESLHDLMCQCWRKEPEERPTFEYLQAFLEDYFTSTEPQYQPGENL
T3 sequence (P35968 20-1356): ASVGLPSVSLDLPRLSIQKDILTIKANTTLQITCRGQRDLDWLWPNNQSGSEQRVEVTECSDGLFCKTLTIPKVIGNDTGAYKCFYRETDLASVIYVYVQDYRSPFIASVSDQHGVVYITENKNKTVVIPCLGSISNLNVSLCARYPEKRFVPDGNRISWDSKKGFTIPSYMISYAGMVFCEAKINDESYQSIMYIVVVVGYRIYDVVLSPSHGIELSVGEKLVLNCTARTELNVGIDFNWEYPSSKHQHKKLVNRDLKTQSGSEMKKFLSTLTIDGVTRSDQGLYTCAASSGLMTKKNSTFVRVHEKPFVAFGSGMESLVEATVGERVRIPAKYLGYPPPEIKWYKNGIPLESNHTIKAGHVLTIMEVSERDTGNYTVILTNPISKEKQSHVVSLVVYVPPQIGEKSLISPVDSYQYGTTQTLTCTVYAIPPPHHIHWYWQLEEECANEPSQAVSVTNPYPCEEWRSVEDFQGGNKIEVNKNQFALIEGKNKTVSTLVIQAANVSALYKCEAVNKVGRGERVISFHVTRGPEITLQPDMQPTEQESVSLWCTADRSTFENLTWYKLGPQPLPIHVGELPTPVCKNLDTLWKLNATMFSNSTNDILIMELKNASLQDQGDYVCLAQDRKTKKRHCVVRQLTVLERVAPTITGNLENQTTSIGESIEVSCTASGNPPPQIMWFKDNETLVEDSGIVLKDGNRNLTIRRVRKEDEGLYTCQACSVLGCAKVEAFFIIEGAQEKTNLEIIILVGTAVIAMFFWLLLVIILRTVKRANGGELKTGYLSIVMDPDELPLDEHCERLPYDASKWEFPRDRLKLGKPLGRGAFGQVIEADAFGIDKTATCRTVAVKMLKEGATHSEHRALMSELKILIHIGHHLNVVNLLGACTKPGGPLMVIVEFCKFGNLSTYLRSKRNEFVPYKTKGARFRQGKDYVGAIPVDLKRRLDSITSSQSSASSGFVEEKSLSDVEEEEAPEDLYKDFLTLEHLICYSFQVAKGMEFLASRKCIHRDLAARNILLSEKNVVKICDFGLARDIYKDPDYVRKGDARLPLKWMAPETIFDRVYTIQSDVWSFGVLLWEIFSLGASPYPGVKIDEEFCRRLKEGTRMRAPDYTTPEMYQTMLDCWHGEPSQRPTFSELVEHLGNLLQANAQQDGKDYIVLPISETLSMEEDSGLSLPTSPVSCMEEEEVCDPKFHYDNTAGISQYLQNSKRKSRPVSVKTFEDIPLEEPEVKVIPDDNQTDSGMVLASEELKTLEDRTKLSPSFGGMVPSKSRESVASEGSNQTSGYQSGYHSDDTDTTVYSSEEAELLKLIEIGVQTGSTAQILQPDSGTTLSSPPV

Row | IC50 (Ramos cells) [µM] | IC50 (Syk) [µM] | IC50 (ZAP-70) [µM] | IC50 (KDR) [µM] | IC50 (Src) [µM] | SMILES
1 | 3 to 50 | < 0.3 | 3 to 50 | < 0.3 | 0.3 to 3 | c1ccc2ncc(-c3nccn4nc(Nc5ccc(N6CCOCC6)cc5)nc34)cc2c1 [Example C261]
2 | 3 to 50 | < 0.3 | – | – | – | COc1cc(Nc2nc3c(-c4ccccc4-c4ccccc4)nccn3n2)cc(OC)c1 [Example C284, (8-Biphenyl-2-yl-[1,2,4]triazolo[1,5-a]pyrazin-2-yl)-(3,5-dimethoxy-phenyl)-amine]
3 | 3 to 50 | < 0.3 | 3 to 50 | < 0.3 | < 0.3 | c1cc(-c2nccn3nc(Nc4ccc(N5CCOCC5)cc4)nc23)c2cc[nH]c2c1 [Example D10, [8-(1H-Indol-4-yl)-[1,2,4]triazolo[1,5-a]pyrazin-2-yl]-(4-morpholin-4-yl-phenyl)-amine]
4 | 3 to 50 | < 0.3 | 0.3 to 3 | < 0.3 | 0.3 to 3 | COc1cc(Nc2nc3c(-c4cccc(O)c4)nccn3n2)cc(OC)c1 [Example C268, 3-[2-(3,5-Dimethoxy-phenylamino)-[1,2,4]triazolo[1,5-a]pyrazin-8-yl]-phenol]
5 | 3 to 50 | < 0.3 | 0.3 to 3 | < 0.3 | 0.3 to 3 | COc1cc(Nc2nc3c(-c4cccc(NS(C)(=O)=O)c4)nccn3n2)cc(OC)c1 [Example C272, N-{3-[2-(3,5-Dimethoxy-phenylamino)-[1,2,4]triazolo[1,5-a]pyrazin-8-yl]-phenyl}-methanesulfonamide]
6 | – | 3 to 50 | 3 to 50 | 3 to 50 | 3 to 50 | Cc1cc(C)cc(Nc2nc3c(NCCCN(C)C)nccn3n2)c1 [Example C35, N^8-(3-Dimethylamino-propyl)-N^2-(3,5-dimethyl-phenyl)-[1,2,4]triazolo[1,5-a]pyrazine-2,8-diamine]
7 | – | 0.3 to 3 | 3 to 50 | 3 to 50 | 3 to 50 | COc1cc(Nc2nc3c(N4CCCC4c4ccccn4)nccn3n2)cc(OC)c1 (stereo not shown) [Example D21, (3,5-Dimethoxy-phenyl)-[8-(2-pyridin-2-yl-pyrrolidin-1-yl)-[1,2,4]triazolo[1,5-a]pyrazin-2-yl]-amine]
8 | 3 to 50 | < 0.3 | – | 0.3 to 3 | 0.3 to 3 | Cc1nc2cc(Nc3nc4c(-c5cnn(C)c5)nccn4n3)ccc2[nH]1 [Example D1, (2-Methyl-1H-benzoimidazol-5-yl)-[8-(1-methyl-1H-pyrazol-4-yl)-[1,2,4]triazolo[1,5-a]pyrazin-2-yl]-amine]
9 | – | 3 to 50 | 0.3 to 3 | 3 to 50 | 3 to 50 | FC(F)(F)c1cccc(Nc2nc3c(NCCCN4CCOCC4)nccn3n2)c1 [Example C42, N^8-(3-Morpholin-4-yl-propyl)-N^2-(3-trifluoromethyl-phenyl)-[1,2,4]triazolo[1,5-a]pyrazine-2,8-diamine]
10 | – | 0.3 to 3 | 3 to 50 | 0.3 to 3 | 3 to 50 | Cn1ccnc1Sc1ccc(Nc2nc3c(-c4ccccc4)nccn3n2)cc1Cl [Example C23, [3-Chloro-4-(1-methyl-1H-imidazol-2-ylsulfanyl)-phenyl]-(8-phenyl-[1,2,4]triazolo[1,5-a]pyrazin-2-yl)-amine]
11 | 3 to 50 | < 0.3 | – | < 0.3 | 0.3 to 3 | NCc1cccc(-c2nccn3nc(Nc4ccc(N5CCOCC5)cc4)nc23)c1 [Example C253, [8-(3-Aminomethyl-phenyl)-[1,2,4]triazolo[1,5-a]pyrazin-2-yl]-(4-morpholin-4-yl-phenyl)-amine]
12 | – | < 0.3 | 3 to 50 | 0.3 to 3 | 0.3 to 3 | COc1cc(Nc2nc3c(-c4cnn(C)c4)nccn3n2)cc(OC)c1 [Example C300, (3,5-Dimethoxy-phenyl)-[8-(1-methyl-1H-pyrazol-4-yl)-[1,2,4]triazolo[1,5-a]pyrazin-2-yl]-amine]
13 | – | 0.3 to 3 | 3 to 50 | 0.3 to 3 | 3 to 50 | Cc1cccc(Nc2nc3c(-c4ccc(N5CCOCC5)cc4)nccn3n2)c1 [Example C13, [8-(4-Morpholin-4-yl-phenyl)-[1,2,4]triazolo[1,5-a]pyrazin-2-yl]-m-tolyl-amine]
14 | – | < 0.3 | 3 to 50 | < 0.3 | 0.3 to 3 | CN(C)c1ccc(-c2nccn3nc(Nc4ccc(N5CCOCC5)cc4)nc23)cn1 [Example D3, [8-(6-Dimethylamino-pyridin-3-yl)-[1,2,4]triazolo[1,5-a]pyrazin-2-yl]-(4-morpholin-4-yl-phenyl)-amine]
15 | – | < 0.3 | 0.3 to 3 | < 0.3 | 0.3 to 3 | Oc1cccc(-c2nccn3nc(Nc4ccc(N5CCOCC5)cc4)nc23)c1 [Example C269, 3-[2-(4-Morpholin-4-yl-phenylamino)-[1,2,4]triazolo[1,5-a]pyrazin-8-yl]-phenol]
16 | – | 3 to 50 | 3 to 50 | 3 to 50 | 3 to 50 | Cc1cc(C)cc(Nc2nc3c(NCCCN4CCN(C)CC4)nccn3n2)c1 [Example C36, N^2-(3,5-Dimethyl-phenyl)-N^8-[3-(4-methyl-piperazin-1-yl)-propyl]-[1,2,4]triazolo[1,5-a]pyrazine-2,8-diamine]
17 | – | 0.3 to 3 | 3 to 50 | 0.3 to 3 | 0.3 to 3 | COCC(O)Cn1cc(-c2nccn3nc(Nc4ccc(N5CCOCC5)cc4)nc23)cn1 (stereo not shown) [Example D6, 1-Methoxy-3-{4-[2-(4-morpholin-4-yl-phenylamino)-[1,2,4]triazolo[1,5-a]pyrazin-8-yl]-pyrazol-1-yl}-propan-2-ol]
18 | – | < 0.3 | 3 to 50 | 0.3 to 3 | 0.3 to 3 | COc1cc(Nc2nc3c(-c4ccc(C(C)(C)C#N)cc4)nccn3n2)cc(OC)c1 [Example C256, 2-{4-[2-(3,5-Dimethoxy-phenylamino)-[1,2,4]triazolo[1,5-a]pyrazin-8-yl]-phenyl}-2-methyl-propionitrile]
19 | – | < 0.3 | 3 to 50 | 0.3 to 3 | 0.3 to 3 | COc1cc(Nc2nc3c(-c4cn[nH]c4)nccn3n2)cc(OC)c1 [Example C301, (3,5-Dimethoxy-phenyl)-[8-(1H-pyrazol-4-yl)-[1,2,4]triazolo[1,5-a]pyrazin-2-yl]-amine]
20 | – | < 0.3 | 3 to 50 | < 0.3 | 0.3 to 3 | Cn1ncc2cc(-c3nccn4nc(Nc5ccc(N6CCOCC6)cc5)nc34)ccc21 [Example D2, [8-(1-Methyl-1H-indazol-5-yl)-[1,2,4]triazolo[1,5-a]pyrazin-2-yl]-(4-morpholin-4-yl-phenyl)-amine]
